Measured values as given in article PMC12523303, “Multi-Fused S,N-Heterocyclic Compounds for Targeting α-Synuclein Aggregates” (Cells, 2025).

What was measured:
[1] = molecular target: T1, α-synuclein (α-syn) aggregates in PD brain homogenates (Homo sapiens, UniProt P37840); test: Two point screening assay (30 nM and 300 nM) vs [3H]asyn-44 in human PD brain homogenates; type: binding; conditions: for % [3H]asyn-44 remaining at 30 nM / remaining activity at 0.03 µM: 30 nM competitor; for % [3H]asyn-44 remaining at 300 nM / remaining activity at 0.3 µM: 300 nM competitor
T1 construct: Anterior cingulate cortex tissue from a Parkinson’s disease (PD) case; tissue Banner Sun Health Research Institute (Dr. Thomas Beach); host or cells: post-mortem human PD anterior cingulate cortex homogenate
Procedure: Screening assays for the test compounds were performed at two concentrations—30 nM and 300 nM—using unlabelled competitors in human PD brain homogenates against [^3H]asyn-44 as previously described. […] Each assay was conducted in triplicate for both concentrations to ensure reproducibility and statistical reliability.

[2] = molecular target: T1, α-synuclein (α-syn) aggregates in PD brain homogenates; test: In vitro competition (Ki) assay vs [3H]asyn-44 in PD brain homogenates; type: binding; conditions: 1 nM [3H]asyn-44
Procedure: Anterior cingulate cortex tissue from a Parkinson’s disease (PD) case was generously provided by Dr. Thomas Beach at the Banner Sun Health Research Institute in Arizona, USA. […] Preparation of the frozen blocks for binding assays followed previously established protocols.
The equilibrium inhibition constants (Ki) for the unlabelled compounds were measured against [^3H]asyn-44 using our previously reported procedure. For these assays, frozen aliquots of homogenized human brain tissue (stored at −80 °C) were used. Homogenates were prepared at 10 mg/mL in phosphate-buffered saline, then diluted with 50 mM Tris buffer (pH 7.0) to a working concentration of 1 mg/mL.
Unlabeled competitor compounds were initially dissolved in DMSO at 400 μM, then diluted with Tris buffer to 20 μM, resulting in a 5% DMSO concentration. A serial dilution series (ranging from 6 μM to 4 nM) was prepared in the same 5% DMSO/Tris buffer solution to maintain consistent solvent conditions throughout the assay.
To perform the binding assay, 50 μL of the appropriately diluted competitor solution was mixed with 50 μL of [^3H]asyn-44 (1 nM final concentration) and 800 μL of Tris buffer containing 20% ethanol and 0.1% bovine serum albumin (BSA). Then, 100 μL of the 1 mg/mL brain homogenate was added, bringing the final tissue concentration to 100 μg/mL. The reaction mixtures were incubated at room temperature for 60 min before filtration through Whatman GF/B glass fibre filters using a Brandel M-24R cell harvester (Gaithersburg, MD, USA). Filters were washed three times with 3 mL of Tris buffer containing 20% ethanol and 0.1% BSA.
After washing, retained radioactivity was measured using CytoScint-ES scintillation fluid following thorough vortexing. Specific binding was calculated by correcting for nonspecific binding (as described later), and the amount of bound radioligand was derived from the filter-associated radioactivity and the molar activity of the tritiated compound.

[3] = Metabolic stability in human liver microsomes; type: in vitro ADME; conditions: for % disappearance at 5 minutes relative to time zero / % disappearance at 15 minutes relative to time zero / % disappearance at 30 minutes relative to time zero / Clearance Category / remaining at 5 min, 1 μM / remaining at 0.5 h, 1 μM: human liver microsomes; for Clearance Category: as per Cyprotex Website; for half-life at 1 μM: human, pH 7.4, human liver microsomes (h-MR); for half-life at 1 μM / remaining at 5 min, 1 μM / remaining at 0.5 h, 1 μM: pooled human liver microsomes; for remaining at 5 min, 1 μM / remaining at 0.5 h, 1 μM: pH 7.4; for % disappearance at 30 minutes relative to time zero / remaining at 0.5 h, 1 μM: 30 min
Procedure: Metabolic stability assays were conducted using pooled human liver microsomes (HLMs) to evaluate the rate of in vitro metabolic degradation of the test compound. Incubations were carried out in duplicate (n = 2) at a final compound concentration of 1 μM. The protein concentration of the microsomal suspension was adjusted to 0.5 mg/mL using phosphate buffer (100 mM, pH 7.4). Reactions were initiated by the addition of NADPH (final concentration 1 mM) and incubated at 37 °C. Aliquots were taken at four time points: 0, 5, 15, and 30 min. Each reaction was quenched with ice-cold acetonitrile containing internal standard, followed by centrifugation to pellet proteins. Supernatants were analyzed using a validated LC-MS/MS method to determine the concentration of the parent compound at each time point. […] Metabolic stability was assessed by calculating the percentage of the parent compound remaining at each time point. The elimination rate constant (k), half-life (t1/2), and intrinsic clearance (CLint) were derived from the natural log-transformed concentration vs. time data, assuming first-order kinetics.

Row | % [3H]asyn-44 remaining at 30 nM [1] | % [3H]asyn-44 remaining at 300 nM [1] | SMILES | also measured
1 | 112% | 64% | Cn1ccc(-c2cc3nc(-c4ccc(N5CCC(F)C5)nc4)ccc3s2)n1 (stereo not shown) [LMD-005] | –
2 | 64% | 22% | Cn1ccc(-c2cc3c(cnn3-c3nccc(N4CCC(F)CC4)n3)s2)n1 [LMD-076] | –
3 | 81% | 38% | FC1CCN(c2ccc(-n3cc4sc(-c5cncs5)cc4n3)cn2)C1 (stereo not shown) [LMD-028] | –
4 | 46% | 26% | O=C1NCc2nc(-c3ccc(N4CCC(F)C4)nc3)ccc21 (stereo not shown) [LMD-064] | –
5 | 45% | 20% | F[C@@H]1CCN(c2cnc(-c3ccc4sc(-c5cncs5)cc4n3)cn2)C1 [LMD-014] | –
6 | 76% | 51% | Cn1ccc(-c2cc3nn(-c4cnc(N5CCC(F)CC5)cn4)cc3s2)n1 [LMD-066] | –
7 | 54% | 28% | FC1CCN(c2ccc(-c3ccc4scc(Br)c4n3)cn2)C1 (stereo not shown) [LMD-040] | –
8 | 72% | 13% | FC1CCN(c2ccc(-c3cc4nc(-c5cccnc5)ccc4s3)cn2)C1 (stereo not shown) [LMD-024] | Ki [2]: 54 nM
9 | – | – | FC1CCN(c2cnc(-n3cc4sc(-c5cccnc5)cc4n3)cn2)CC1 [LMD-051] | remaining activity at 0.03 µM [1]: 38%; remaining activity at 0.3 µM [1]: 4%; % disappearance at 5 minutes relative to time zero [3]: 24.2%; % disappearance at 15 minutes relative to time zero [3]: 64.3%; % disappearance at 30 minutes relative to time zero [3]: 69.7%; Clearance Category [3]: High; half-life at 1 μM [3]: 17 min; remaining at 5 min, 1 μM [3]: 75.8%; remaining at 0.5 h, 1 μM [3]: 30.3%; Ki [2]: 9.2 nM
10 | 77% | 13% | FC1CCN(c2ccc(-c3ccc4scc(-c5cccnc5)c4n3)cn2)C1 (stereo not shown) [LMD-041] | Ki [2]: 58 nM
11 | 91% | 48% | Cn1ccc(N2Cc3nc(-c4ccc(N5CCC(F)C5)nc4)ccc3C2=O)n1 (stereo not shown) [LMD-016] | –
12 | 51% | 33% | F[C@@H]1CCN(c2cnc(-n3cc4sc(-c5cccnc5)cc4n3)cn2)C1 [LMD-033] | –
13 | 46% | 21% | COc1cncc(-c2cc3nc(-c4cnc(N5CCC(F)C5)cn4)ccc3s2)c1 (stereo not shown) [LMD-015] | –
14 | – | – | F[C@@H]1CCN(c2cc(-n3cc4sc(-c5cccnc5)cc4n3)ncn2)C1 [LMD-052] | remaining activity at 0.03 µM [1]: 27%; remaining activity at 0.3 µM [1]: 2%; % disappearance at 5 minutes relative to time zero [3]: 60.3%; % disappearance at 15 minutes relative to time zero [3]: 82.8%; % disappearance at 30 minutes relative to time zero [3]: 94.4%; Clearance Category [3]: High; half-life at 1 μM [3]: 7.6 min; remaining at 5 min, 1 μM [3]: 39.7%; remaining at 0.5 h, 1 μM [3]: 5.61%; Ki [2]: 6 nM
15 | – | – | F[C@@H]1CCN(c2ccc(-c3ccc4sc(-c5cncs5)cc4n3)cn2)C1 [LMD-006] | remaining activity at 0.03 µM [1]: 53%; remaining activity at 0.3 µM [1]: 2%; % disappearance at 5 minutes relative to time zero [3]: 60.2%; % disappearance at 15 minutes relative to time zero [3]: 88.1%; % disappearance at 30 minutes relative to time zero [3]: 95.7%; Clearance Category [3]: High; half-life at 1 μM [3]: 6.81 min; remaining at 5 min, 1 μM [3]: 39.6%; remaining at 0.5 h, 1 μM [3]: 4.32%; Ki [2]: 12 nM
16 | 99% | 50% | Cn1cnc(N2Cc3nc(-c4ccc(N5CCC(F)C5)nc4)ccc3C2=O)c1 (stereo not shown) [LMD-023] | –
17 | 64% | 33% | Cn1ccc(-c2csc3ccc(-c4ccc(N5CCC(F)C5)nc4)nc23)n1 (stereo not shown) [LMD-063] | –
18 | 87% | 58% | Cn1ccc(-c2cc3nc(-c4cnc(N5CCC(F)C5)cn4)ccc3s2)n1 (stereo not shown) [LMD-013] | –
19 | 86% | 28% | Cn1ccc(-c2cc3nn(-c4ccc(N5CCC(F)C5)nn4)cc3s2)n1 (stereo not shown) [LMD-067] | –
20 | 48% | 33% | Cn1ccc(-c2cc3c(cnn3-c3ccc(N4CCC(F)C4)nn3)s2)n1 (stereo not shown) [LMD-072] | –
21 | 43% | 32% | FC1CCN(c2cnc(-c3ccc4sc(-c5cncs5)cc4n3)cn2)CC1 [LMD-062] | –

Row | % [3H]asyn-44 remaining at 30 nM [1] | % [3H]asyn-44 remaining at 300 nM [1] | SMILES | also measured
22 | 58% | 15% | Cn1ccc(-c2cc3nn(-c4cnc(N5CCC(F)C5)cn4)cc3s2)n1 (stereo not shown) [LMD-054] | Ki [2]: 24 nM
23 | 57% | 21% | Fc1cc(-c2ccc3sc(-c4cccnc4)cc3n2)cnc1N1CCCC1 [LMD-002] | –
24 | 55% | 45% | Cn1ccc(-c2cc3nn(-c4cc(N5CCC(F)CC5)ncn4)cc3s2)n1 [LMD-074] | –
25 | 65% | 23% | FC1CCN(c2cnc(-c3ccc4sccc4n3)cn2)CC1 [LMD-036] | –
26 | 66% | 24% | FC1CCC(c2cnc(-n3cc4sccc4n3)cn2)C1 (stereo not shown) [LMD-031] | –
27 | 43% | 22% | FC1CCN(c2ccnc(-n3ncc4sc(-c5cccnc5)cc43)n2)C1 (stereo not shown) [LMD-070] | –
28 | 89% | 35% | FC1CCN(c2cc(Cl)ncc2-c2ccc3sc(-c4cccnc4)cc3n2)C1 (stereo not shown) [LMD-049] | –
29 | 66% | 27% | O=C1c2ccc(-c3ccc(N4CCC(F)C4)nc3)nc2CN1c1cccnc1 (stereo not shown) [LMD-019] | –
30 | 67% | 20% | Cn1ccc(-c2cc3c(cnn3-c3cc(N4CCC(F)CC4)ncn3)s2)n1 [LMD-077] | –
31 | 71% | 29% | FC1CCN(c2cc(-n3ncc4sc(-c5cccnc5)cc43)ncn2)C1 (stereo not shown) [LMD-073] | –
32 | 43% | 25% | Cn1ccc(N2Cc3nc(-c4cnc(N5CCC(F)C5)cn4)ccc3C2=O)n1 (stereo not shown) [LMD-017] | –
33 | 56% | 29% | FC1CCN(c2ccnc(-n3cc4sc(-c5cccnc5)cc4n3)n2)C1 (stereo not shown) [LMD-061] | –
34 | 50% | 34% | FC1CCN(c2cc(-n3cc4sc(-c5cccnc5)cc4n3)ncn2)CC1 [LMD-068] | –
35 | 57% | 27% | FC1CCN(c2cnc(-c3ccc4sccc4n3)cn2)C1 (stereo not shown) [LMD-039] | –
36 | 56% | 25% | FC1CCN(c2ccc(-c3csc4ccc(-c5cccnc5)nc34)cn2)C1 (stereo not shown) [LMD-026] | –
37 | 49% | 31% | FC1CCN(c2ccnc(-n3cc4sc(-c5cccnc5)cc4n3)n2)CC1 [LMD-069] | –
38 | 34% | 12% | FC1CCN(c2cnc(-n3cc4sc(-c5cncs5)cc4n3)cn2)C1 (stereo not shown) [LMD-029] | Ki [2]: 13 nM
39 | 72% | 39% | CC1CCN(c2ncc(-c3ccc4sc(-c5cccnc5)cc4n3)cc2F)C1 (stereo not shown) [LMD-001] | –
40 | 45% | 17% | FC1CCN(c2cnc(-c3ccc4sc(-c5cccnc5)cc4n3)cn2)C1 (stereo not shown) [LMD-009] | –
41 | 41% | 19% | Cn1ccc(-c2cc3nn(-c4nccc(N5CCC(F)CC5)n4)cc3s2)n1 [LMD-075] | –

Row | SMILES | % [3H]asyn-44 remaining at 30 nM [1] | % [3H]asyn-44 remaining at 300 nM [1] | also measured
42 | Cn1ccc(-c2cc3nc(-c4cnc(N5CCC(F)CC5)cn4)ccc3s2)n1 [LMD-060] | 48% | 29% | –
